Test results from paper PMC9786170, “The Pharmacological Potential of Novel Melittin Variants from the Honeybee and Solitary Bees against Inflammation and Cancer” (Toxins, 2022).

Legend:
MDA-MB-231 cells = assay: Apoptosis of MDA-MB-231 cells (propidium iodide, flow cytometry); format: cell-based, human; settings: MDA-MB-231, 25 µg/mL, 24 h, 48 h and 72 h, PI, n = 2
Experimental: Figure 5 Anti-proliferative and apoptotic effect of melittin derivates on the triple-negative breast cancer cell line MDA-MB-231. (A) For the proliferation assay, cells were grown in low density and were treated after 24 h with melittin peptides at a concentration of 25 µg/mL for 72 h. Cells were stained with crystal violet solution. The amount of DNA-bound crystal violet was detected by absorbance measurements. (B) Melt3, 4, and Xac4, which are non-toxic to healthy cells, were further used to test effects on proliferation at 24 h (left) and 48 h (right) at different concentrations. (C) The effects on apoptosis were detected by flow cytometry after 24 h (left), 48 h (middle), and 72 h (right) of treatment. The number of apoptotic cells was determined by staining with propidium iodide (PI). Data are expressed as mean ± SEM. n = 2, * p ≤ 0.05 versus control. Sts, staurosporin 1 µM.
Apoptosis of primary HUVECs was detected according to the method of Nicoletti et al.. […] The percentage of cells with sub-diploidic DNA content was measured using a FACSVerse flow cytometer (BD Biosciences, Heidelberg, Germany).

calmodulin = settings: cited from earlier work
Text: These two systems are rarely independent but are often antagonistic, sometimes synergistic, or occasionally redundant. Ca^2+ is never elevated without a possible consequence—either positive or negative— ...

HEK293T cells [1] = assay: cAMP inhibition assay (forskolin-stimulated, pGloSensor-22F); format: cell-based, human; settings: 5 µM forskolin, 2.5 and 25 µg/mL, pGloSensor luminescence, n = 4
Experimental: (§1) Figure 3 Melittin derivates alter the cellular concentration of cyclic adenosine monophosphate (cAMP). (A) For the cAMP induction assay, HEK293T cells transfected with pGloSensor-22F cAMP plasmid were treated with melittin derivates (0.25, 2.5, 25 µg/mL) in presence of the pGloSensor cAMP reagent, and luminescence was detected. (B) For the cAMP inhibition assay, HEK293T cells transfected with pGloSensor-22F cAMP plasmid were treated with melittin derivates (0.25, 2.5, 25 µg/mL) in presence of the pGloSensor cAMP reagent, stimulated with 5 µM forskolin, and luminescence was detected. Data are expressed as mean ± SEM. n = 4, * p ≤ 0.05 versus control.
(§2) HEK293T cells were transfected with pGloSensor-22F cAMP plasmid (E2301, Promega, Walldorf, Germany) using turbofect reagent (Thermofisher Scientific, Frankfurt am Main, Germany). […] For the induction assay (step one), the luminescence was detected (background, 3 measurements every 5 min) and then the melittin peptides (0.25, 2.5, 25 µg/mL) or 5 µM forskolin were added. The luminescence was detected (3 measurements every 5 min) using the plate reader (Spark, Tecan, Männedorf, Switzerland). For the inhibition assay (step tow), the melittin peptide-treated cells were then incubated with 5 µM forskolin and the luminescence was detected (3 measurements every 5 min). […]

[2] = test system: triple-negative and HER2-enriched breast cancer subtypes; settings: cited from earlier work
Text: It was also reported that a positively charged C-terminal peptide end is responsible for the plasma membrane ...

RAW264.7 cells = assay: Cell viability assay (WST-8/Orangu formazan) in RAW264.7 cells; format: cell-based, murine; settings: RAW264.7, 25 µg/mL, 24 h, WST-8 formazan absorbance, vehicle = 100%, n = 3
Experimental: Figure 1 Toxicity characterization of cells treated with melittin peptides. (A,B) For the viability assay, RAW264.7 (A) or HEK293T (B) cells were treated with bee venom compounds in the indicated concentrations for 24 h. Cells were incubated with WST-8 and the formed formazan was detected by absorbance measurements. (C) For the proliferation assay, HMEC-1 cells were grown in low density and treated after 24 h with the indicated peptide (25 µg/mL) for 72 h. Cells were stained with crystal violet solution. The amount of DNA-bound crystal violet was detected by absorbance measurements. (D) The number of sub-diploidic cells was determined by staining with propidium iodide (PI) and quantified to assess apoptosis of HUVECs. Data are expressed as mean ± SEM. (A) n = 3, (B) n = 4, (C) n = 2–3, (D) n = 2. * p ≤ 0.05 versus control.
For assessing the cytotoxicity of all peptides, various cell types and assays were utilized. To determine the cell viability of HEK293T and RAW246.7 cells, the Orangu^TM assay (Cell Guidance Systems Ltd., Cambridge, UK) was used, as previously described. 2 × 10^5 HEK293T or 2 × 10^5 RAW246.7 were seeded in 96-well plates. Different concentrations (0, 0.25, 2.5, 25 µg/mL) of melittin peptides or vehicle (DMSO) were added. After 24 h of incubation at 37 °C and 5% CO2, 10 µL of Orangu^TM cell counting solution was added and incubated for 60 min. After incubation, absorbance was measured at a wavelength of 450 nm with a reference at 650 nm at an EnSpire 2300 Multimode Plate Reader (Perkin Elmer, Lübeck, Germany). To calculate cell viability, the absorbance of vehicle-treated cells was set to 100%, and the melittin derivates-treated samples were correlated to them.

[3] = test system: LPS-activated BV2 microglia; settings: by blocking NF-κB translocation; cited from earlier work
Text: (§3) LPS induces iNOS expression and the release of NO in RAW264.7 macrophages. […] Previously, Tang et al. reported that Melt prev ...

[4] = test system: IL-1β-activated rat knee joint cells; settings: by inhibiting I-κB degradation and NF-κB migration into the nucleus; cited from earlier work
Text: as §3

HEK293T cells [5] = assay: cAMP induction assay (pGloSensor-22F); format: cell-based, human; settings: 2.5 and 25 µg/mL, pGloSensor luminescence, n = 4
Experimental: as §1, §2

xylopin [Xac4]
apoptosis / cancer cell death (MDA-MB-231 cells): trend of decreased proliferation and increased apoptosis

melittin [Melt, reference compound]
inhibition of calmodulin function (calmodulin): competitive inhibitor of the calmodulin function | prevention of cAMP synthesis, forskolin-stimulated cells (HEK293T cells [1]): almost completely prevented cAMP synthesis | apoptosis of breast cancer subtypes [2]: induce apoptosis | reduction of cell viability (RAW264.7 cells): more than 90% | iNOS expression and NO synthesis [3]: reduced LPS-activated BV2 microglia iNOS expression and NO synthesis | NF-κB activation [4]: prevents NF-κB activation | prevention of cAMP synthesis, unstimulated cells (HEK293T cells [5]): almost completely prevented cAMP synthesis
